Blank lines part the entries; values can stand above or below the compound they belong to. Residues, ends and D or L forms follow the SMILES beside them.
Assays:
[1] = Method for Testing Solubilization: time required for completely dissolving crushed α-APM sample in water; assay type: physicochemical; details: 26±2° C.; for time required for completely dissolving the sample (solubilization test): 250 mg crushed sample in 250 ml purified water, magnetic stirrer 350-360 rpm, stirring and standing alternated every 30 seconds; for Solubilization (minutes), Table 1 / Solubilization (min), Table 2: 250 mg in 250 ml purified water, stirring/standing every 30 seconds
Method: Crushed α-APM sample (250 mg) is poured into 250 ml of purified water at 26±2° C. with stirring by a magnetic stirrer at 350- 360 rpm. Stirring and standing are alternately repeated for every 30 seconds and the time required for completely dissolving the sample is measured.

[2] = Solubilization of conventionally recrystallized α-APM (background); assay type: physicochemical; details: 250 mg in 250 ml water, room temperature
Description: α-APM purified by conventional recrystallization methods has the disadvantage of poor solubilization (rate of solution) in water.

[3] = Thermal stability in solution (diketopiperazine formation); assay type: physicochemical; details: aqueous medium, temperatures higher than 70° C.
[4] = Hard block formation on drying; assay type: physicochemical; details: dry crystalline α-APM
[5] = pH; cited from earlier work
[6] = crystallized by cooling without forced flow, Japanese Laid-Open Patent No. 177952/1983; cited from earlier work

Structure (SMILES): COC(=O)[C@H](Cc1ccccc1)NC(=O)[C@@H](N)CC(=O)O [Example 15, α-L-aspartyl-L-phenylalanine methyl ester] (H-Asp-Phe-OMe)
time required for completely dissolving the sample (solubilization test) [1]: 5.5 min

Structure (SMILES): COC(=O)[C@H](Cc1ccccc1)NC(=O)[C@@H](N)CC(=O)O [Example 16, α-L-aspartyl-L-phenylalanine methyl ester] (H-Asp-Phe-OMe)
time required for completely dissolving the sample (solubilization test) [1]: ≤ 5 min

Structure (SMILES): COC(=O)[C@H](Cc1ccccc1)NC(=O)[C@@H](N)CC(=O)O [Example 6, α-L-aspartyl-L-phenylalanine methyl ester] (H-Asp-Phe-OMe)
Solubilization (minutes), Table 1 ([1]; listed as Ex. 6): 6.5 min

Structure (SMILES): COC(=O)[C@H](Cc1ccccc1)NC(=O)[C@@H](N)CC(=O)O [Example 10, α-L-aspartyl-L-phenylalanine methyl ester] (H-Asp-Phe-OMe)
Solubilization (minutes), Table 1 ([1]; listed as Ex. 10): 5.5 min

Structure (SMILES): COC(=O)[C@H](Cc1ccccc1)NC(=O)[C@@H](N)CC(=O)O [Example 2, α-L-aspartyl-L-phenylalanine methyl ester] (H-Asp-Phe-OMe)
time required for completely dissolving the sample (solubilization test) [1]: ≤ 5 min

Structure (SMILES): COC(=O)[C@H](Cc1ccccc1)NC(=O)[C@@H](N)CC(=O)O [Example 19, α-L-aspartyl-L-phenylalanine methyl ester] (H-Asp-Phe-OMe)
Solubilization (min), Table 2 [1]: 5.5 min

Structure (SMILES): COC(=O)[C@H](Cc1ccccc1)NC(=O)[C@@H](N)CC(=O)O [Example 9, α-L-aspartyl-L-phenylalanine methyl ester] (H-Asp-Phe-OMe)
Solubilization (minutes), Table 1 ([1]; listed as Ex. 9): 7.5 min

Structure (SMILES): COC(=O)[C@H](Cc1ccccc1)NC(=O)[C@@H](N)CC(=O)O [Example 12, α-L-aspartyl-L-phenylalanine methyl ester] (H-Asp-Phe-OMe)
time required for completely dissolving the sample (solubilization test) [1]: 5.5 min

Structure (SMILES): COC(=O)[C@H](Cc1ccccc1)NC(=O)[C@@H](N)CC(=O)O [Example 20, α-L-aspartyl-L-phenylalanine methyl ester] (H-Asp-Phe-OMe)
Solubilization (min), Table 2 [1]: 5.5 min

Structure (SMILES): COC(=O)[C@H](Cc1ccccc1)NC(=O)[C@@H](N)CC(=O)O [Example 1, α-L-aspartyl-L-phenylalanine methyl ester] (H-Asp-Phe-OMe)
time required for completely dissolving the sample (solubilization test) [1]: ≤ 5 min

Structure (SMILES): COC(=O)[C@H](Cc1ccccc1)NC(=O)[C@@H](N)CC(=O)O [Example 11, α-L-aspartyl-L-phenylalanine methyl ester] (H-Asp-Phe-OMe)
time required for completely dissolving the sample (solubilization test) [1]: 6.5 min

Structure (SMILES): COC(=O)[C@H](Cc1ccccc1)NC(=O)[C@@H](N)CC(=O)O [Example 4, α-L-aspartyl-L-phenylalanine methyl ester] (H-Asp-Phe-OMe)
time required for completely dissolving the sample (solubilization test) [1]: ≤ 5 min

Structure (SMILES): COC(=O)[C@H](Cc1ccccc1)NC(=O)[C@@H](N)CC(=O)O [Example 3, α-L-aspartyl-L-phenylalanine methyl ester] (H-Asp-Phe-OMe)
time required for completely dissolving the sample (solubilization test) [1]: ≤ 5 min

Structure (SMILES): COC(=O)[C@H](Cc1ccccc1)NC(=O)[C@@H](N)CC(=O)O [Example 5, α-L-aspartyl-L-phenylalanine methyl ester] (H-Asp-Phe-OMe)
Solubilization (minutes), Table 1 ([1]; listed as Ex. 5): 6.5 min

Structure (SMILES): COC(=O)[C@H](Cc1ccccc1)NC(=O)[C@@H](N)CC(=O)O [Example 13, α-L-aspartyl-L-phenylalanine methyl ester] (H-Asp-Phe-OMe)
time required for completely dissolving the sample (solubilization test) [1]: 5.5 min

Structure (SMILES): COC(=O)[C@H](Cc1ccccc1)NC(=O)[C@@H](N)CC(=O)O [Example 18, α-L-aspartyl-L-phenylalanine methyl ester] (H-Asp-Phe-OMe)
time required for completely dissolving the sample (solubilization test) [1]: ≤ 5 min

Structure (SMILES): COC(=O)[C@H](Cc1ccccc1)NC(=O)[C@@H](N)CC(=O)O [Example 7, α-L-aspartyl-L-phenylalanine methyl ester] (H-Asp-Phe-OMe)
Solubilization (minutes), Table 1 ([1]; listed as Ex. 7): 4.5 min

Structure (SMILES): COC(=O)[C@H](Cc1ccccc1)NC(=O)[C@@H](N)CC(=O)O [Example 14, α-L-aspartyl-L-phenylalanine methyl ester] (H-Asp-Phe-OMe)
time required for completely dissolving the sample (solubilization test) [1]: 6.5 min

Structure (SMILES): COC(=O)[C@H](Cc1ccccc1)NC(=O)[C@@H](N)CC(=O)O [Example 21, α-L-aspartyl-L-phenylalanine methyl ester] (H-Asp-Phe-OMe)
Solubilization (min), Table 2 [1]: 5.5 min

Structure (SMILES): COC(=O)[C@H](Cc1ccccc1)NC(=O)[C@@H](N)CC(=O)O [Example 8, α-L-aspartyl-L-phenylalanine methyl ester] (H-Asp-Phe-OMe)
Solubilization (minutes), Table 1 ([1]; listed as Ex. 8): 5.5 min

Structure (SMILES): COC(=O)[C@H](Cc1ccccc1)NC(=O)[C@@H](N)CC(=O)O [Example 17, α-L-aspartyl-L-phenylalanine methyl ester] (H-Asp-Phe-OMe)
time required for completely dissolving the sample (solubilization test) [1]: ≤ 5 min

Now from value to compound, other results behind:

time required for completely dissolving the sample (solubilization test) [1]: 13.5 min
Structure (SMILES): COC(=O)[C@H](Cc1ccccc1)NC(=O)[C@@H](N)CC(=O)O [compound 4, α-L-aspartyl-L-phenylalanine methyl ester, reference compound] (H-Asp-Phe-OMe)

time required for completely dissolving the sample (solubilization test) [1]: 12 min
Structure (SMILES): COC(=O)[C@H](Cc1ccccc1)NC(=O)[C@@H](N)CC(=O)O [compound 9, α-L-aspartyl-L-phenylalanine methyl ester, reference compound] (H-Asp-Phe-OMe)

time required for completely dissolving the sample (solubilization test) [1]: 12.5 min
Structure (SMILES): COC(=O)[C@H](Cc1ccccc1)NC(=O)[C@@H](N)CC(=O)O [compound 1, α-L-aspartyl-L-phenylalanine methyl ester, reference compound] (H-Asp-Phe-OMe)

Solubilization (minutes), Table 1 ([1]; listed as Comp. Ex. 5): 12.5 min
Structure (SMILES): COC(=O)[C@H](Cc1ccccc1)NC(=O)[C@@H](N)CC(=O)O [compound 5, α-L-aspartyl-L-phenylalanine methyl ester, reference compound] (H-Asp-Phe-OMe)

Solubilization (min), Table 2 [1]: 5.0 min
Structure (SMILES): COC(=O)[C@H](Cc1ccccc1)NC(=O)[C@@H](N)CC(=O)O [Example 22, α-L-aspartyl-L-phenylalanine methyl ester] (H-Asp-Phe-OMe)

time required for completely dissolving the sample (solubilization test) [1]: 11.5 min
Structure (SMILES): COC(=O)[C@H](Cc1ccccc1)NC(=O)[C@@H](N)CC(=O)O [compound 2, α-L-aspartyl-L-phenylalanine methyl ester, reference compound] (H-Asp-Phe-OMe)

time required for completely dissolving the sample (solubilization test) [1]: 12.5 min
Structure (SMILES): COC(=O)[C@H](Cc1ccccc1)NC(=O)[C@@H](N)CC(=O)O [compound 8, α-L-aspartyl-L-phenylalanine methyl ester, reference compound] (H-Asp-Phe-OMe)

time required for completely dissolving the sample (solubilization test) [1]: 13.5 min
Structure (SMILES): COC(=O)[C@H](Cc1ccccc1)NC(=O)[C@@H](N)CC(=O)O [compound 7, α-L-aspartyl-L-phenylalanine methyl ester, reference compound] (H-Asp-Phe-OMe)

Solubilization (minutes), Table 1 ([1]; listed as Comp. Ex. 6): 13.5 min
Structure (SMILES): COC(=O)[C@H](Cc1ccccc1)NC(=O)[C@@H](N)CC(=O)O [compound 6, α-L-aspartyl-L-phenylalanine methyl ester, reference compound] (H-Asp-Phe-OMe)

time required for completely dissolving the sample (solubilization test) [1]: 12.5 min
Structure (SMILES): COC(=O)[C@H](Cc1ccccc1)NC(=O)[C@@H](N)CC(=O)O [compound 3, α-L-aspartyl-L-phenylalanine methyl ester, reference compound] (H-Asp-Phe-OMe)

time required for completely dissolving the sample (solubilization test) [1]: ≤ 5 min
Structure (SMILES): COC(=O)[C@H](Cc1ccccc1)NC(=O)[C@@H](N)CC(=O)O [Example 23, α-L-aspartyl-L-phenylalanine methyl ester] (H-Asp-Phe-OMe)

time required to dissolve completely ([2]; crushed powder recrystallized from 50 vol. % aqueous methanol, stirring and standing every 30 seconds): more than 15 minutes
hard block formation in the dry state [4]: forms a hard block in the dry state
Structure (SMILES): COC(=O)[C@H](Cc1ccccc1)NC(=O)[C@@H](N)CC(=O)O [α-APM, α-L-aspartyl-L-phenylalanine methyl ester] (H-Asp-Phe-OMe)
undissolved α-APM after 5 minutes ([2]; recrystallized from 50 vol. % aqueous methanol): a significant amount of undissolved α-APM remains even after 5 minutes
thermal stability in solution [3]: diketopiperazine compound is undesirably formed as by-product
isoelectric point [5]: 5.6
solubilization compared to conventionally crystallized product [6]: excellent solubilization as compared to conventionally crystallized product
